Reference: US20260263628A1, “AN ORAL LIQUID COMPOSITION OF VINORELBINE” (INSTITUT GUSTAVE ROUSSY, priority 2022, published 2026)
Counter-ions that a name gives are not always drawn. Like-named read-outs stand apart in the source and are kept apart here.

How the values were obtained:
[1] = tested on: EpiOral; format: cell-based; conditions: vinorelbine 20 mg/mL
Description: EpiOral were also used for immunohistology analysis as follow: 3 untreated tissues (negative control, NC), 3 tissues in contact with SBE-β-CD, 3 tissues in contact with vinorelbine at 20 mg/mL concentration, 3 tissues in contact with vinorelbine complexed with SBE-β-CD and 3 tissues in contact with 1% Triton X-100 (positive control, PC). Tissues samples were fixed with 4% PFA and embedded in paraffin. Sections (3 μm thick) were deparaffinized and were stained with Hematoxylin and Eosin (H&E). For immunofluorescence, slides were incubated overnight at 4° C. with primary antibodies diluted in 0.02% Triton X-100-PBS. Primary antibodies were as follows: rabbit anti-Ki67 (ab16667; 1/75; Abcam), mouse anti-E-Cadherin (ab1416; 1/100; Abcam), rabbit anti-Claudin 4 (ab210796; 1/200; Abcam), mouse anti-Cytokeratin 10 (ab9026; 1/100; Abcam), rabbit anti-Cytokeratin 13 (ab97327; 1/50; Abcam) and mouse anti-Cytokeratin 14 (ab7800; 1/50; Abcam). For immunofluorescence detection, secondary antibody Alexa Fluor™ plus 488 goat anti-mouse (1:200; Invitrogen A11029), Alexa Fluor™ plus 488 donkey anti-rabbit (1:200; Invitrogen A21206), Alexa Fluor™ plus 594 goat anti-mouse (1:200; Invitrogen A32742) and Alexa Fluor™ plus 594 goat anti-rabbit (1:200; Invitrogen A32740) were used. […]

[2] = cited from earlier work
[3] = Isothermal titration calorimetry of CD/vinorelbine systems (titration and competition with SGM); format: physicochemical; conditions: 25° C.; for Binding constant / ΔbH° (inclusion enthalpy): vinorelbine-CD, phosphate buffer pH 7.0
Description: In the first instance, 12 CDs and CD derivatives supplied by Captisol® (Kansas, USA), SIGMA® (St Louis, Missouri, USA) and MSD® (New Jersey, USA) and authorized by the FDA or the European Medicines Agency (EMA) were tested (U.S Food and Drug Administration C for DE and. Food Additive Status List. FDA 2022. U.S Food and Drug Administration C for DE and. Select Committee on GRAS Substances 2022. Committee for Human Medicinal Products. Cyclodextrins used as excipients. EMA 2017:16). These were alpha-CD, beta-[…] (methyl-beta-CD, low substitution degree), RAMEB (methyl-beta-CD, higher substitution degree), DIMEB (di-O-methyl-beta-[…] (tri-O-methyl-beta-CD), HP-beta-CD (Hydroxypropyl-beta-CD), SBE-beta-CD (Sulfobutylether-beta-CD), gamma-CD, HP-gamma-CD (Hydroxypropyl-gamma-CD), SBE-gamma-CD (Sulfobutylether-gamma-CD), and sugammadex (SGM). Vinorelbine ditartrate and 50 mM CD solutions were prepared in phosphate buffer pH 7.0. […] To confirm the validity of the chosen stoichiometric model and to increase the accuracy of the thermodynamic parameters, each system was also subjected to a competition experiment with SGM: a solution of 0.5 mM vinorelbine and 10 mM CD titrated against a mixture containing 5 mM SGM and 10 mM CD. […] For all CDs the measurements were performed at 25° C., and the stirring speed was set at 1000 rpm. The resulting heat flux was recorded as a function of time. Prior to data analysis, blank titrations were performed under the same experimental conditions by injecting individual species into buffer, and/or buffer into species and buffer into buffer to determine the heat of dilution. […] The peak area after each injection was obtained by integration of the resulting signal and was expressed as the heat effect per injection. The binding constant (KB), inclusion enthalpy (ΔbH°), and heat capacity (ΔbCp®) were determined using a program developed by Bertaut and Landy involving a global analysis of all binding isotherms obtained for a given system (Bertaut et al. Beilstein J Org Chem 2014:12). A set of thermodynamic parameters was employed for simultaneous nonlinear regression analyses of titration and competition experiments.

[4] = Simulated complexation of vinorelbine in CD using the constants of Table 2; conditions: for CD concentration needed to obtain 95% of complexation: vinorelbine solution at 20 mg/mL (25.7 mmol/L)
Description: To obtain 95% of complexation for a solution at 20 mg/mL (ie 25.7 mmol/L), about 62 mmol/L of SGM or about 71 mmol/L of SBE-beta-CD is needed.
Using the constant values of Table 2, we simulated the complexation of vinorelbine in CD depending on the CD concentration and the final concentration of the vinorelbine solution. To achieve a concentration of 10 mg/mL, approximately 49 mmol/L sugammadex or 58 mmol/L SBE-beta-CD is required to reach 95% of complexation. For 18 mg/mL, approximately 59 mmol/L sugammadex or 68 mmol/L SBE-beta-CD is required to obtain the same complexation rate. […] This indicates a real and strong complexation between vinorelbine and cyclodextrin.

[5] = Haze / precipitate on mixing CD with vinorelbine (2D NMR sample preparation); format: physicochemical
Description: In order to confirm the type of existing interaction (inclusion complex, type of binding) between CD and vinorelbine, a two-dimensional proton NMR was performed on PA (Spitzer et al, J Heterocycl Chem 1995; 32:1255-9), CDs (Schneider et al, Chem Rev 1998; 98:1755-86) and complexes (Vogt et al, Mol Pharm 2012; 9:3357-74; Péan et al, J Chim Phys Phys-Chim Biol 1999; 96:1486-93). Vinorelbine 10 mM stock solution (SS) was prepared by dissolving 21.58 mg of vinorelbine tartrate in 2 mL of deuterated water. CD stock solutions were prepared by dissolving: 21.78 mg SGM in 1 mL heavy water (SS2), 9.73 mg alpha-CD in ImL heavy water (SS3), 21.63 mg SBE-beta-CD in 1 mL heavy water (SS4), and 20.72 mg SBE-gamma-CD in 1 mL heavy water (SS5). These stock solutions were used for the preparation of 10 samples containing vinorelbine, CDs or a mixture of CDs and vinorelbine in deuterated water as shown in Table 1.
A range of vinorelbine-SGM mixtures was performed from 1.5 mmol/L to 5 mmol/L. The haze appears from the mixture of concentration 2.5 mmol/L (sample 10).

Compound	Cytotoxicity / TUNEL marking [1]	E-cadherin marking (tight junctions) ([1]; Triton X-100 1%)	Solubility ([2]; aprotic solvents)	Solubility ([2]; methanol)	Solubility ([2]; water)	Heat variation / interaction with vinorelbine in titration experiments [3]	Binding constant [3] [L/mol]	ΔbH° (inclusion enthalpy) [3]	CD concentration required to reach 95% of complexation ([4]; vinorelbine 10 mg/mL)	CD concentration required to reach 95% of complexation ([4]; vinorelbine 18 mg/mL)	CD concentration needed to obtain 95% of complexation [4]	Haze / precipitate when mixed with vinorelbine [5]	Concentration of vinorelbine-CD mixture from which haze appears ([5]; range 1.5 to 5 mmol/L, deuterated water) [µM]
CCC1=C[C@@H]2CN(C1)Cc1c([nH]c3ccccc13)[C@@](C(=O)OC)(c1cc3c(cc1OC)N(C)[C@H]1[C@@](O)(C(=O)OC)[C@H](OC(C)=O)[C@]4(CC)C=CCN5CC[C@]31[C@@H]54)C2 [vinorelbine, vinorelbine ditartrate salt hydrate]	causes cell mortality and destroys tight tissue junctions	loss of E-cadherin marking	insoluble	partially soluble	totally soluble	–	–	–	–	–	–	–	–
sulfobutylether-beta-cyclodextrin [SBE-beta-CD]	–	–	–	–	–	an interaction is observed	412	+2305 cal/mol	~58 mmol/L	~68 mmol/L	about 71 mmol/L	does not produce any precipitate	–
O=C(O)CCSC[C@H]1O[C@@H]2O[C@H]3[C@H](O)[C@@H](O)[C@@H](O[C@H]4[C@H](O)[C@@H](O)[C@@H](O[C@H]5[C@H](O)[C@@H](O)[C@@H](O[C@H]6[C@H](O)[C@@H](O)[C@@H](O[C@H]7[C@H](O)[C@@H](O)[C@@H](O[C@H]8[C@H](O)[C@@H](O)[C@@H](O[C@H]9[C@H](O)[C@@H](O)[C@@H](O[C@H]1[C@H](O)[C@H]2O)O[C@@H]9CSCCC(=O)O)O[C@@H]8CSCCC(=O)O)O[C@@H]7CSCCC(=O)O)O[C@@H]6CSCCC(=O)O)O[C@@H]5CSCCC(=O)O)O[C@@H]4CSCCC(=O)O)O[C@@H]3CSCCC(=O)O [SGM, sugammadex]	–	–	–	–	–	an interaction is observed	511	-3.177 kcal/mol	approximately 49 mmol/L	approximately 59 mmol/L	about 62 mmol/L	a haze appeared	≥ 2500
OC[C@H]1O[C@@H]2O[C@H]3[C@H](O)[C@@H](O)[C@@H](O[C@H]4[C@H](O)[C@@H](O)[C@@H](O[C@H]5[C@H](O)[C@@H](O)[C@@H](O[C@H]6[C@H](O)[C@@H](O)[C@@H](O[C@H]7[C@H](O)[C@@H](O)[C@@H](O[C@H]1[C@H](O)[C@H]2O)O[C@@H]7CO)O[C@@H]6CO)O[C@@H]5CO)O[C@@H]4CO)O[C@@H]3CO [Alpha-CD, alpha-cyclodextrin]	–	–	–	–	–	small heat variation	106	-1.185 kcal/mol	–	–	–	–	–
Sulfobutylether-gamma-CD [SBE-gamma-CD]	–	–	–	–	–	an interaction is observed	121	+514 cal/mol	–	–	–	–	–
